In brackets after ≈: the same amount, converted by molar mass. Activity calls are given as the source filed them. The calls are words filed in the database; no cut-off is given here.
How the values were obtained:
P388 = test: Cytotoxicity against mouse P388 cells by MTT assay; assay type: functional, cell-based
Candida albicans = test: Antifungal activity against Candida albicans at 50 ug/mL; assay type: functional, organism-based
PANC-1 = test: Cytotoxicity against human PANC-1 cells by MTT assay; assay type: functional, cell-based

For `Cc1cc2occ(C)c2cc2c(C)ccc1-2` [LINDERAZULENE], the IC50 (P388) was 18.8 µg/mL (≈ 89.4 µM) and the Activity (Candida albicans) was “inactive”.
For `COC(=O)c1ccc2c(C)cc3occ(C)c3cc1-2`, the IC50 (P388) was 2.7 µg/mL (≈ 10.6 µM), the IC50 (PANC-1) was 18.7 µg/mL (≈ 73.5 µM) and the Activity (Candida albicans) was “inactive”.
For `Cc1cc2occ(C)c2cc2c(C=O)ccc1-2`, the IC50 (P388) was 15.6 µg/mL (≈ 69.6 µM) and the Activity (Candida albicans) was “inactive”.
